Source: patent publication US8324222B2, “Cyclically substituted furopyrimidine derivatives and use thereof” (Bayer Intellectual Property GmbH, priority 2005, dated 2012)

Target: T1, prostacyclin receptors (IP receptors) of human thrombocyte membranes (Homo sapiens, UniProt P43119)
T1 construct: 300-1000 μg/ml human thrombocyte membranes per charge; tissue Maco Pharma, Langen (buffy coats); host or cells: human thrombocyte (platelet) membranes prepared from human blood buffy coats
Test: Binding to prostacyclin receptors (IP receptors) of human thrombocyte membranes (3H-Iloprost displacement)
Settings: 3 nM 3H-Iloprost, 60 min, room temperature
Experimental: B-1. Studies of Binding to Prostacyclin Receptors (IP Receptors) of Human Thrombocyte Membranes
Thrombocyte membranes are obtained by centrifuging 50 ml human blood (Buffy coats with CDP Stabilizer, from Maco Pharma, Langen) for 20 min at 160×g. Remove the supernatant (platelet-rich plasma, PRP) and then centrifuge again at 2000×g for 10 min at room temperature. Resuspend the sediment in 50 mM tris-(hydroxymethyl)-aminomethane, which has been adjusted to a pH of 7.4 with 1 N hydrochloric acid, and store at −20° C. overnight. On the next day, centrifuge the suspension at 80000×g and 4° C. for 30 minDiscard the supernatant. Resuspend the sediment in 50 mM tris-(hydroxymethyl)-aminomethane/hydrochloric acid, 0.25 mM ethylene diamine tetraacetic acid (EDTA), pH 7.4, and then centrifuge once again at 80000×g and 4° C. for 30 min. Take up the membrane sediment in binding buffer (50 mM tris-(hydroxymethyl)-aminomethane/hydrochloric acid, 5 mM magnesium chloride, pH 7.4) and store at −70° C. until the binding test.
For the binding test, incubate 3.nM ^3H-Iloprost (592 GBq/mmol, from AmershamBioscience) for 60 min with 300-1000 μg/ml human thrombocyte membranes per charge (max. 0.2 ml) in the presence of the test substances at room temperature. After stopping, add cold binding buffer to the membranes and wash with 0.1% bovine serum albumin. After adding Ultima Gold Scintillator, quantify the radioactivity bound to the membranes using a scintillation counter. The nonspecific binding is defined as radioactivity in the presence of 1 μM Iloprost (from Cayman Chemical, Ann Arbor) and is as a rule <25% of the bound total radioactivity. The binding data (IC50 values) are determined using the program GraphPad Prism Version 3.02.

T1 sequence (P43119 whole entry): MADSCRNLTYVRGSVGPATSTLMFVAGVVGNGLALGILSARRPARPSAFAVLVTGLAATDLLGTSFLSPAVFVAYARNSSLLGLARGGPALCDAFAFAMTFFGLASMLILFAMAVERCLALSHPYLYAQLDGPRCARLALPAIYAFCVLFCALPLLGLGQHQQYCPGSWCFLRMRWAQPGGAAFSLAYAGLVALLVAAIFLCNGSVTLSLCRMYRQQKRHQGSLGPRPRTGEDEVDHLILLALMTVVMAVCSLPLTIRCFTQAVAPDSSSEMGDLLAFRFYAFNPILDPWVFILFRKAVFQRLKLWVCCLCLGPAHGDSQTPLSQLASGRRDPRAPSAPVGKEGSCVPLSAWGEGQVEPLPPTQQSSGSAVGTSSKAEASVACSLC

Row | Compound | IC50
1 | CCc1ccc(-c2c(-c3ccccc3)oc3ncnc(O[C@@H]4CCCN(CCCC(=O)O)C4)c23)cc1F (single isomer, unassigned) [Example 159] | 83 nM
2 | O=C(O)COc1cccc(Nc2ncnc3oc(-c4ccccc4)c(-c4ccc(F)cc4)c23)c1 [Example 6, 3-{[5-(4-Fluorophenyl)-6-phenylfuro[2,3-d]pyrimidin-4-yl]amino}phenoxyacetic acid] | 237 nM
3 | COC(=O)COc1cccc(Nc2ncnc3oc(-c4ccccc4)c(-c4ccc(OC)cc4)c23)c1 [Example 9, 3-{[5-(4-methoxyphenyl)-6-phenylfuro[2,3-d]pyrimidin-4-yl]amino}phenoxyacetic acid methyl ester] | 43 nM
4 | COc1ccc(-c2c(-c3ccccc3)oc3ncnc(Nc4cccc(OCC(=O)O)c4)c23)cc1 [Example 10, 3-{[5-(4-Methoxyphenyl)-6-phenylfuro[2,3-d]pyrimidin-4-yl]amino}phenoxyacetic acid] | 18 nM
5 | COc1ccc(-c2c(-c3ccccc3)oc3ncnc(Nc4cccc(/C=C/C(=O)O)c4)c23)cc1 [Example 21, (2E)-3-(3-{[5-(4-Methoxyphenyl)-6-phenylfuro[2,3-d]pyrimidin-4-yl]amino}phenyl)acrylic acid] | 11 nM
6 | CCc1ccc(-c2c(-c3ccccc3)oc3ncnc(O[C@@H]4CCCN(CCCC(=O)O)C4)c23)cc1 [Example 154] | 28 nM
7 | CCc1ccc(-c2c(-c3ccccc3)oc3ncnc(N[C@@H]4C=C[C@@H](OCC(=O)O)C4)c23)cc1 [Example 176] | 24 nM
8 | CCc1ccc(-c2c(-c3ccccc3F)oc3ncnc(O[C@@H]4CCCN(CCCC(=O)O)C4)c23)cc1 [Example 181, 4-[(3R)-3-{[5-(4-Ethylphenyl)-6-(2-fluorophenyl)furo[2,3-d]pyrimidin-4-yl]oxy}piperidin-1-yl]-butyric acid] | 27 nM
9 | COC(=O)CCCN1CCC[C@@H](Oc2ncnc3oc(-c4ccccc4F)c(-c4ccc(OC)cc4)c23)C1 [Example 183, 4-[(3R)-3-{[6-(2-Fluorophenyl)-5-(4-methoxyphenyl)furo[2,3-d]pyrimidin-4-yl]oxy}piperidin-1-yl]butyric acid methyl ester] | 218 nM

Continued, values first:

Row | IC50 | Compound
10 | 8 nM | COc1ccc(-c2c(-c3ccccc3)oc3ncnc(O[C@H]4CCC[C@H](OCC(=O)O)C4)c23)cc1 (racemic) [Example 69]
11 | 20 nM | CCc1ccc(-c2c(-c3ccccc3)oc3ncnc(N[C@H]4CCC[C@H](OCC(=O)O)C4)c23)cc1 (racemic) [Example 146]
12 | 388 nM | COc1ccc(-c2c(-c3ccccc3)oc3ncnc(O[C@H]4CCC[C@@H](OCC(=O)O)C4)c23)cc1 (single isomer, unassigned) [Example 67]
13 | 34 nM | COc1ccc(-c2c(-c3ccccc3)oc3ncnc(O[C@H]4CCC[C@@H](OCC(=O)O)C4)c23)cc1 (single isomer, unassigned) [Example 68]
14 | 15 nM | COc1ccc(-c2c(-c3ccccc3)oc3ncnc(Oc4ccc(CCC(=O)O)cc4)c23)cc1 [Example 24, 3-(4-{[5-(4-Methoxyphenyl)-6-phenylfuro[2,3-d]pyrimidin-4-yl]oxy}phenyl)propanoic acid]
15 | 152 nM | COc1ccc(-c2c(-c3ccccc3)oc3ncnc(OC4CCCN(CCCC(=O)O)C4)c23)cc1 (centres unmarked) [Example 84]
16 | 17 nM | COc1ccc(-c2c(-c3ccccc3)oc3ncnc(N[C@H]4CCC[C@H](OCC(=O)O)C4)c23)cc1 [Example 87]
17 | 34 nM | COc1ccc(-c2c(-c3ccccc3)oc3ncnc(O[C@@H]4CCCN(CCc5nnn[nH]5)C4)c23)cc1 [Example 99]
18 | 293 nM | O=C(O)CO[C@@H]1CCC[C@H](Oc2ncnc3oc(-c4ccccc4)c(-c4ccc(Cl)cc4)c23)C1 [Example 156]
19 | 37 nM | COc1ccc(-c2c(-c3ccccc3)oc3ncnc(O[C@H]4CC[C@H](OCC(=O)O)C4)c23)cc1 [Example 162]
20 | 71 nM | COc1ccc(-c2c(-c3ccccc3)oc3ncnc(N[C@H]4CC[C@@H](OCC(=O)O)C4)c23)cc1 [Example 168]
21 | 6 nM | COc1ccc(-c2c(-c3ccccc3)oc3ncnc(N[C@@H]4CC[C@@H](OCC(=O)O)C4)c23)cc1 [Example 170]
22 | 13 nM | CCc1ccc(-c2c(-c3ccccc3)oc3ncnc(O[C@@H]4C=C[C@@H](OCC(=O)O)C4)c23)cc1 [Example 175]

System: not given
Test: not given
Settings: rapid non-enzymatic transformation to inactive metabolite 6-keto-prostaglandin-F1alpha; cited from earlier work

Row | Compound | half-life
23 | CCCCC[C@H](O)/C=C/[C@@H]1[C@H]2C/C(=C/CCCC(=O)O)O[C@H]2C[C@H]1O [PGI2, Prostacyclin] | approx. 3 minutes
